Data: ChEMBL document CHEMBL1129110, “O-alkylcarboxylate oxime and N-hydroxyurea analogs of substituted indole leukotriene biosynthesis inhibitors” (Bioorg Med Chem Lett, 1996)
pIC50: −log10 of the molar value. The source made the active and inactive calls. The calls are words filed in the database; no cut-off is given here.

What was measured:
5-lipoxygenase/FLAP [1] = target: T1, 5-lipoxygenase/FLAP (Homo sapiens, UniProt P09917+P20292); experiment: Inhibition of calcium ionophore (A23187) stimulated LTB4 formation in human neutrophils; assay type: functional
T1 sequence (P09917 whole entry): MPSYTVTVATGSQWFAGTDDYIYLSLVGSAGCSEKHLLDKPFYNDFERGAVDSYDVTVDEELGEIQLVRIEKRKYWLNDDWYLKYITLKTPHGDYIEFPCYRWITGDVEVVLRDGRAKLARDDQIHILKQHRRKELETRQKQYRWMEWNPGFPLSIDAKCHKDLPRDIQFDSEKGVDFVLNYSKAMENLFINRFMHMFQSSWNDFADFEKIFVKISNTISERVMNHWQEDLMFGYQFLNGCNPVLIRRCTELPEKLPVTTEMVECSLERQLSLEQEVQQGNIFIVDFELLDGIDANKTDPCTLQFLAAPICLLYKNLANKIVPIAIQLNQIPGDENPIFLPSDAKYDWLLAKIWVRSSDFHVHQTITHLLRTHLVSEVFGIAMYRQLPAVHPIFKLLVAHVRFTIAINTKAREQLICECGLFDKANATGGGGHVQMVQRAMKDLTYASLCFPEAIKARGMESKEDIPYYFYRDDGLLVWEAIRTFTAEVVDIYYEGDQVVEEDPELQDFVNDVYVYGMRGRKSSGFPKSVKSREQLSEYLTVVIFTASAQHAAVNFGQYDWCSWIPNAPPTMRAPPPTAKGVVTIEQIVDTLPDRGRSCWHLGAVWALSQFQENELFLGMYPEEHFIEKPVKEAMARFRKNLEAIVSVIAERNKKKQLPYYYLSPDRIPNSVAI
T1 sequence (P20292 whole entry): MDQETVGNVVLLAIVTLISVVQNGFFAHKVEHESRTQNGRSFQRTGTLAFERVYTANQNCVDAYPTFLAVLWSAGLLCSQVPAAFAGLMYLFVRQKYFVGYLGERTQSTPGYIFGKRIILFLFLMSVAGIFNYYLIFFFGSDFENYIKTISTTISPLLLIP

Homo sapiens [2] = organism: Homo sapiens; experiment: (§1) Human whole blood was stimulated with calcium ionophore (A23187) and LTB 4 measured by enzyme immunoassay; assay type: functional
Rattus norvegicus [3] = experiment: Compound was tested in vivo against rat anaphylaxis in the peritoneal cavity at concentration of 1 umol/kg; assay type: functional
5-lipoxygenase/FLAP [4] = target: T1, 5-lipoxygenase/FLAP; experiment: as §1; assay type: functional, tissue-based
Rattus norvegicus [5] = experiment: Compound was tested in vivo against rat anaphylaxis in the peritoneal cavity at concentration of 100 umol/kg; assay type: functional
Rattus norvegicus [6] = experiment: Compound was tested in vivo against rat anaphylaxis in the peritoneal cavity; assay type: functional
Rattus norvegicus [7] = experiment: Compound was tested in vivo against rat anaphylaxis in the peritoneal cavity; Not active; assay type: functional, organism-based
[8] = target: T2, Polyunsaturated fatty acid 5-lipoxygenase (Rattus norvegicus, UniProt P12527); experiment: Compound was tested for inhibition of 5-lipoxygenase activity in a broken cell supernatant rat basophilic leukemia cells at concentration of 32 uM; Not active
T2 sequence (P12527 whole entry): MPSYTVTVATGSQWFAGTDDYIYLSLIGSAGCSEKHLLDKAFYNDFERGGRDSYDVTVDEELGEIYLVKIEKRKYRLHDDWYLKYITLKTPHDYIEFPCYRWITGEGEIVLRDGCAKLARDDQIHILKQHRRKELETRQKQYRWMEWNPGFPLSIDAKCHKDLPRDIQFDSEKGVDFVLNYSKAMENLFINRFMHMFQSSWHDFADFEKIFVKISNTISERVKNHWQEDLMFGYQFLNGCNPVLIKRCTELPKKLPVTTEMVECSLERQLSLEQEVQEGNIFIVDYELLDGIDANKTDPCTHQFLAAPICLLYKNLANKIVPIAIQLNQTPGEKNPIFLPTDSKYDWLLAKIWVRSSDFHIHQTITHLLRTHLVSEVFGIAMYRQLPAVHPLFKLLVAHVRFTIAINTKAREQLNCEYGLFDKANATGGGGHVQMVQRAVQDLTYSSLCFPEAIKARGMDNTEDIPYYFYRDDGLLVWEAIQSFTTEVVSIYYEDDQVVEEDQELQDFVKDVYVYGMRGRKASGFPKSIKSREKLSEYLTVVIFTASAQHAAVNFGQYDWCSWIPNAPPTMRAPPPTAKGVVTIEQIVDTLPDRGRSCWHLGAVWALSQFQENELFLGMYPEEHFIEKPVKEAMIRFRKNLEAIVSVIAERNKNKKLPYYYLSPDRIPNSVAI

Rattus norvegicus [9] = experiment: Compound was tested in vivo against rat anaphylaxis in the peritoneal cavity at concentration of 100 umol/kg; Not active; assay type: functional, organism-based
Homo sapiens [10] = organism: Homo sapiens; experiment: Compound was tested for inhibition of calcium ionophore (A23187) stimulated LTB4 formation in human neutrophils at 100 nM; assay type: functional
[11] = target: T2, Polyunsaturated fatty acid 5-lipoxygenase; experiment: Compound was tested for inhibition of 5-lipoxygenase activity in a broken cell supernatant rat basophilic leukemia cells at concentration of 50 uM; Not active
[12] = target: T2, Polyunsaturated fatty acid 5-lipoxygenase; experiment: Compound was tested for inhibition of 5-lipoxygenase activity in a broken cell supernatant rat basophilic leukemia cells
Rattus norvegicus [13] = experiment: Compound was tested in vivo against rat anaphylaxis in the peritoneal cavity at 60 umol/kg; assay type: functional

Row | Structure (SMILES) | pIC50 (5-lipoxygenase/FLAP [1]) | pIC50 (5-lipoxygenase/FLAP [4]) | ED50 (Rattus norvegicus [6]) [µmol/kg] | other results
1 | CC(C)(C)Sc1c(CC(C)(C)C(=O)O)n(Cc2ccc(Cl)cc2)c2ccc(OCc3nccs3)cc12 | 8.15 | – | – | Inhibition (Homo sapiens [2]): 41%; inhibition in vivo at 1 µmol/kg (Rattus norvegicus [3]): 16%
2 | CC(C)(C)Sc1c(CC(C)(C)C(=O)O)n(Cc2ccc(Cl)cc2)c2ccc(OCc3cccnc3)cc12 | 7.77 | 5.96 | – | inhibition in vivo at 100 µmol/kg (Rattus norvegicus [5]): 4%
3 | CO/N=C/C(C)(C)Cc1c(SC(C)(C)C)c2cc(C(C)C)ccc2n1Cc1ccc(Cl)cc1 | 9.47 | 4.96 | – | ED50 (Rattus norvegicus [7]): inactive
4 | CC(C)c1ccc2c(c1)c(SC(C)(C)C)c(CC(C)(C)C(=O)O)n2Cc1ccc(Cl)cc1 | 10.52 | 6.47 | 16 | IC50 [8]: Not Active
5 | CC(C)c1ccc2c(c1)c(SC(C)(C)C)c(CC(C)(C)CNC(N)=O)n2Cc1ccc(Cl)cc1 | 9.74 | 6.01 | 11 | IC50 [11]: Not Active
6 | CC(C)c1ccc2c(c1)c(SC(C)(C)C)c(CC(C)(C)CN(O)C(N)=O)n2Cc1ccc(Cl)cc1 | 9.77 | 5.80 | 46 | pIC50 [12]: 5.12
7 | CC(C)(C)Sc1c(CC(C)(C)C(=O)O)n(Cc2ccc(Cl)cc2)c2ccc(OCc3ccc4ccccc4c3)cc12 | 7.92 | 5.35 | – | ED50 (Rattus norvegicus [9]): inactive
8 | CC(C)c1ccc2c(c1)c(SC(C)(C)C)c(CC(C)(C)NC(=O)N(C)O)n2Cc1ccc(Cl)cc1 | 9.82 | 5.89 | – | inhibition in vivo at 60 µmol/kg (Rattus norvegicus [13]): 49%; pIC50 [12]: 5.12
9 | CC(C)c1ccc2c(c1)c(SC(C)(C)C)c(CC(C)(C)/C=N/O)n2Cc1ccc(Cl)cc1 | 9.57 | 5.66 | – | inhibition in vivo at 100 µmol/kg (Rattus norvegicus [5]): 46%

More lines, main results first:

Row | pIC50 (5-lipoxygenase/FLAP [1]) | pIC50 (5-lipoxygenase/FLAP [4]) | Structure (SMILES) | ED50 (Rattus norvegicus [6]) [µmol/kg] | other results
10 | 8.00 | 6.44 | CC(C)(C)Sc1c(CC(C)(C)C(=O)O)n(Cc2ccc(Cl)cc2)c2ccc(OCc3nc4ccccc4s3)cc12 | – | inhibition in vivo at 1 µmol/kg (Rattus norvegicus [3]): 71%
11 | – | 7.30 | CC(C)(C)Sc1c(CC(C)(C)C(=O)O)n(Cc2ccc(Cl)cc2)c2ccc(OCc3ccccn3)cc12 | 0.16 | –
12 | – | 6.08 | CC(C)(C)Sc1c(CC(C)(C)C(=O)O)n(Cc2ccc(Cl)cc2)c2ccc(OCc3ccncc3)cc12 | – | ED50 (Rattus norvegicus [9]): inactive; inhibition at 0.1 µM (Homo sapiens [10]): 100%
13 | 8.40 | 7.40 | CC(C)(C)Sc1c(CC(C)(C)C(=O)O)n(Cc2ccc(Cl)cc2)c2ccc(OCc3cscn3)cc12 | 1.8 | –
14 | 8.00 | 6.64 | CC(C)(/C=N/OCC(=O)O)Cc1c(SC(C)(C)C)c2cc(OCc3cccc(Cl)n3)ccc2n1Cc1ccc(Cl)cc1 | 2.6 | –
15 | 8.10 | 6.70 | CC(C)(C)Sc1c(CC(C)(C)C(=O)O)n(Cc2ccc(Cl)cc2)c2ccc(OCc3ccc4ccccc4n3)cc12 [QUIFLAPON] | 1.6 | –
16 | 10.00 | 6.17 | CC(C)c1ccc2c(c1)c(SC(C)(C)C)c(CC(C)(C)/C=N/OCC(=O)O)n2Cc1ccc(Cl)cc1 | 3 | –
17 | 7.92 | 6.22 | CC(C)(/C=N/OCC(=O)O)Cc1c(SC(C)(C)C)c2cc(OCc3ccc4ccccc4n3)ccc2n1Cc1ccc(Cl)cc1 | 0.24 | –
18 | 7.96 | 6.74 | CC(C)(/C=N/OCC(=O)O)Cc1c(SC(C)(C)C)c2cc(OCc3cscn3)ccc2n1Cc1ccc(Cl)cc1 | 44 | –
19 | 7.89 | 6.22 | CC(C)(/C=N/OCC(=O)O)Cc1c(SC(C)(C)C)c2cc(OCc3ccccn3)ccc2n1Cc1ccc(Cl)cc1 | 0.12 | –
20 | 7.77 | 6.96 | CC(C)(C)Sc1c(CC(C)(C)C(=O)O)n(Cc2ccc(Cl)cc2)c2ccc(OCc3cccc(Cl)n3)cc12 | 1.2 | –
